From patent publication US20250314636A1, “METHOD OF PREPARING AND EXPANDING A POPULATION OF IMMUNE CELLS FOR CANCER THERAPY, POTENCY ASSAY FOR TUMOR RECOGNITION, BIOLOGICAL VACCINE PREPARATION AND EPITOPETARGET FOR ANTIBODIES” (FUNDAÇÃO D. ANNA DE SOMMER CHAMPALIMAUD E DR. CARLOS MONTEZ …, priority 2022, published 2025)

test system: PBMCs; assay: Peptide recognition assay in PBMCs (IFN-γ in supernatant, 7 days); type: cell-based, human; conditions: 10e4 PBMC/well co-cultured with the peptide for 7 days, supernatant tested
Protocol: (§1) Peptides from tumor-associated antigens (TAAs), listed in Table 5 were placed at 1 ug/well in duplicates using anti-CD3 at 30 ng/mL as well as PHA at 5 μg/mL as positive controls.
(§2) The differences in TIL versus PBMCs can also be defined by peptide reactivity. 10e^4 TIL or 10e^4 PBMC/well were co-cultured with the peptides listed in Table 11 below for 7 days and the supernatants were tested for IFN-γ production.

Sequence	IFN-γ production, PBMCs
LAFQPPISNHPAPEY	0
LVVVGAGVVGKSALT	0
MALPTARPLLGSCGT	0
VTDASSASTGH	0
GIPFIETSTKTRQRVED	0
LDILDTAGQEEYSAMRD	0
PVTSTSSASTGHATP	0

test system: TIL; assay: Peptide recognition assay in TIL (IFN-γ ELISA / IL-17 in supernatant, 7 days); type: cell-based, human; parameters: IFN-γ production, TIL: unit not given here; conditions: 10e4 TIL/well co-cultured with the peptide for 7 days, supernatant tested
Protocol: as §1, §2

Sequence	IFN-γ production, TIL
LAFQPPISNHPAPEY	0
LVVVGAGVVGKSALT	0
MALPTARPLLGSCGT	0
VTDASSASTGH	0
GIPFIETSTKTRQRVED	85
LDILDTAGQEEYSAMRD	0
PVTSTSSASTGHATP	0

same assay, conditions: Pancreatic TIL D1599

Sequence	Pancreatic TIL D1599 IFN-y	Pancreatic TILD1599 IL 17
GIPFIETSTKTRQRVED [Kras_P15 (A146T)]	0 pg/mL	0 pg/mL
DILDTAGLEEYSAMR [KRAS_Q61L]	24 pg/mL	0 pg/mL
TTPLPVTSPSSASSG [MUC4-P6 [WT]]	0 pg/mL	0 pg/mL
YKLVVVGASGVGKSALT [Kras_P5 (G12S)]	14 pg/mL	0 pg/mL
MALPTARPLLGSCGT [Mesothelin MPF-1]	0 pg/mL	0 pg/mL
YKLVVVGADGVGKSALT [Kras_P3 (G12D)]	0 pg/mL	0 pg/mL
GIPFIETSAKTRQRVED [Kras_P14 (A146 WT)]	0 pg/mL	0 pg/mL
PVTSPSSESTGHAIP [MUC4-P9 [Mut]]	0 pg/mL	0 pg/mL
ELNNALQNL [ESAT6, reference compound]	0 pg/mL	0 pg/mL
KLVVVGAGGVGKSALTI [Kras_P8 (G13 WT)]	0 pg/mL	108 pg/mL
LQGGIPNGYLVLDLS [Mesothelin GPI P40 (596-610)]	0 pg/mL	0 pg/mL
YKLVVVGAVGVGKSALT [Kras_P2 (G12V)]	0 pg/mL	2 pg/mL
LDILDTAGQEEYSAMRD [Kras_P10 (Q61 WT)]	0 pg/mL	0 pg/mL
PVTSLSSASTGDTTP [MUC4-P4 [WT]]	17 pg/mL	0 pg/mL
LDILDTAGKEEYSAMRD [Kras_P11 (Q61K)]	0 pg/mL	0 pg/mL
TPLPVTDTSSASTGH [MUC4-P2 [WT]]	0 pg/mL	1 pg/mL
KLVVVGAGDVGKSALTI [Kras_P9 (G13D)]	0 pg/mL	3 pg/mL
LDVLYPKARLAFQNM [Mesothelin GPI P14]	0 pg/mL	11 pg/mL
LVVVGAGSVGKSALT [KRAS_G13S]	24 pg/mL	0 pg/mL
YKLVVVGACGVGKSALT [Kras_P6 (G12C)]	0 pg/mL	0 pg/mL
LVVVGAGCVGKSALT [KRAS_G13C]	26 pg/mL	0 pg/mL
HRLSEPPEDLDALPL [Mesothelin MPF-8]	0 pg/mL	0 pg/mL
LVVVGAGRVGKSALT [KRAS_G13R]	29 pg/mL	0 pg/mL
KLVVVGAVGVGKSAL [KRAS_G12F]	36 pg/mL	0 pg/mL
PMVLVGNNCDLPSRT [KRAS_K117N]	32 pg/mL	0 pg/mL
MQEALSGTPCLLGPG [Mesothelin GPI P40 (601-605)]	0 pg/mL	120 pg/mL

Sequence	Pancreatic TIL D1599 IFN-y	Pancreatic TILD1599 IL 17
SVSTMDALRGLLPVL [Mesothelin MPF-17]	0 pg/mL	0 pg/mL
VTDTSSASTGH [MUC4-P1_fitted for HLA-A*01:01]	0 pg/mL	24 pg/mL
YKLVVVGARGVGKSALT [Kras_P4 (G12R)]	0 pg/mL	0 pg/mL
LDILDTAGHEEYSAMRD [Kras_P12 (Q61H)]	0 pg/mL	4 pg/mL
PVTSTSSASTGHATP [MUC4-P8 [WT]]	0 pg/mL	2 pg/mL
LLPRGAPERQRLLPA [Mesothelin MPF-11]	0 pg/mL	0 pg/mL
LAFQPPISNHPAPEY [SMAD4 [D1 private peptide]]	0 pg/mL	0 pg/mL
LVVVGAGVVGKSALT [KRAS_G13V]	10 pg/mL	0 pg/mL
LVVVGAVGVGKSALT [KRAS fitted for HLA-DQB1*06:02]	0 pg/mL	0 pg/mL
IPFIETSVKTRQRVE [KRAS_A146V]	5 pg/mL	0 pg/mL
FVAESAEVLLPRLVS [Mesothelin MPF-14]	0 pg/mL	0 pg/mL
YKLVVVGAGGVGKSALT [Kras_P1 (G12 WT)]	0 pg/mL	37 pg/mL
YEQLDVLKHKLDELY [Mesothelin GPI P5]	0 pg/mL	0 pg/mL
VTDASSASTGH [MUC4-P2_fitted for HLA-A*01:01]	0 pg/mL	14 pg/mL
WAVRPQDLDTCDPRQ [Mesothelin GPI P13]	0 pg/mL	0 pg/mL
TPLPVTDNSSASTGD [MUC4-P11 [Mut]]	19 pg/mL	0 pg/mL
PVTSPSSASTGHAIP [MUC4-P10 [WT]]	5 pg/mL	0 pg/mL
LDILDTAGREEYSAMRD [Kras_P13 (Q61R)]	0 pg/mL	0 pg/mL
TTPLPVTIPSSASSG [MUC4-P5 [Mut][WT]]	12 pg/mL	0 pg/mL
PVTSTSSVSTGHATP [MUC4-P7 [Mut][WT]]	0 pg/mL	0 pg/mL
TPLPVTDASSASTGH [MUC4-P1 [Mut][WT]]	0 pg/mL	3 pg/mL
ALACWGVRGSLLSEA [Mesothelin MPF-12]	0 pg/mL	0 pg/mL
LVVVGAGAVGKSALT [KRAS_G13A]	19 pg/mL	0 pg/mL
TLGEFLKLDRERAKN [Survivin (97-111)]	0 pg/mL	0 pg/mL
TPLPVTDTSSASTGD [MUC4-P12 [WT]]	34 pg/mL	0 pg/mL
YKLVVVGAAGVGKSALT [Kras_P7 (G12A)]	0 pg/mL	65 pg/mL
